One block for each compound: values may come before it.
Assays:
Assay type in all cases: biochemical
[1] = biological target: T1, CD13 (Homo sapiens, UniProt P15144); experiment: Measurement of human plasma sample using CD13 probe in microdevice; conditions: 50 μM probe, 1000 fold dilution plasma; for Fluorescence intensity of human plasma samples, patient with pancreatic cancer compared with healthy subject (CD13 probe): microdevice; for AUC of ROC curve for the number of wells in which CD13 is considered to be enclosed: plasma of 30 patients with pancreatic cancer vs 30 healthy subjects, 37° C. 4 hours, wells >= Average+3SD of background fluorescence
T1 construct: human plasma samples collected from 30 patients with pancreatic cancer and 30 healthy subjects; from tissue; host or cells: human plasma (pancreatic cancer patients and healthy subjects)
Experimental: 1. Arg-PMAC as a CD13 probe was diluted with an assay buffer to 100 μM. The composition of the buffer is 100 mM HEPES-NaOH (pH 7.4), 1 mM MgCl2, 1 mM DTT, 3 mM TritonX-100.
(§1) 2. Next, human plasma samples collected from 30 patients with pancreatic cancer and 30 healthy subjects were diluted 500 times with the above assay buffer, and mixed in an equal amount with the diluted solution of the CD13 probe. At this time, the final concentrations are 50 μM for the CD13 probe and 1000 fold dilution for the human plasma sample.
(§2) 3. The mixed solution was then added to a microdevice, followed by the addition of sealing oil to enclose the solution in each well.
4. The microdevice in which the solution was enclosed was incubated at 37° C. for 4 hours, and then the fluorescence intensity of each well was measured with a fluorescence microscope.

[2] = biological target: T2, DPP4 (Homo sapiens, UniProt P27487); experiment: Measurement of human plasma sample using DPP4 probe in microdevice; conditions: 50 μM probe, 1000 fold dilution plasma
T2 construct: human plasma samples collected from 30 patients with pancreatic cancer and 30 healthy subjects; from tissue; host or cells: human plasma (pancreatic cancer patients and healthy subjects)
Experimental: 1. Glu-Pro-PMAC as a DPP4 probe was diluted with an assay buffer to 100 μM. The composition of the buffer is 100 mM HEPES-NaOH (pH 7.4), 1 mM MgCl2, 1 mM DTT, 3 mM TritonX-100.
as §1, with “DPP4” for “CD13”
as §2
4. The microdevice in which the solution was enclosed was incubated at 25° C. for 2 hours, and then the fluorescence intensity of each well was measured with a fluorescence microscope.

[3] = biological target: T3, ENPP3 (Homo sapiens, UniProt O14638); experiment: Measurement of human plasma sample using ENPP probe in microdevice; parameters: human plasma samples collected from six patients with pancreatic cancer and six healthy subjects; from tissue; host or cells: human plasma (pancreatic cancer patients and healthy subjects)
T3 sequence (O14638 1-875): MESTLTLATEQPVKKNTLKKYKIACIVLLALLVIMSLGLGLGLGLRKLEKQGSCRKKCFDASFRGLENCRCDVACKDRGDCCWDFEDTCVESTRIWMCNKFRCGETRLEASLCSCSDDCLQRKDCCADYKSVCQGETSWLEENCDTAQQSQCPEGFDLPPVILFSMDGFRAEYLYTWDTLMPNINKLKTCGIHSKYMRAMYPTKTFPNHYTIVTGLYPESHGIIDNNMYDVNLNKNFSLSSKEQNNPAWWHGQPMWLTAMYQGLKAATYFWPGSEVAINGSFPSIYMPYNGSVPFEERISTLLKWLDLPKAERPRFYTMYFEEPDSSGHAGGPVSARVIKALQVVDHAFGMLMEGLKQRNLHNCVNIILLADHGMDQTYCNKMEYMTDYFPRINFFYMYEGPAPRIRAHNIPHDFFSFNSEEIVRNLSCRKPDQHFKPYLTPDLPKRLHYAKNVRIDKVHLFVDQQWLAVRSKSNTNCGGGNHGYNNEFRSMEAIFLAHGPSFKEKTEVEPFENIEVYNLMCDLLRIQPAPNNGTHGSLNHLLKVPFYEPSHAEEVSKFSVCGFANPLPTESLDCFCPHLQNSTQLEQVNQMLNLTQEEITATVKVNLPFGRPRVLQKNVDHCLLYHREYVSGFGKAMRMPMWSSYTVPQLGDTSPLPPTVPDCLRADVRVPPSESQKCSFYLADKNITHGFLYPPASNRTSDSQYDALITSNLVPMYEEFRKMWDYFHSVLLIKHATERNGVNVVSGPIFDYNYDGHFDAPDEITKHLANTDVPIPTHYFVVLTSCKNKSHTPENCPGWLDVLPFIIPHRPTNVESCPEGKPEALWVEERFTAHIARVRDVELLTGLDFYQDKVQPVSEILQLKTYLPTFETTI
Experimental: 1. PMUM-dCMP as an ENPP probe was diluted with an assay buffer to 200 μM. The composition of the assay buffer is 100 mM Tris-HCl (pH 9.3), 1 mM MgCl2, 0.5% (w/v) CHAPS.
as §1, with “six” for “30”, “250” for “500”, “ENPP” for “CD13”, “100” for “50”, “500” for “1000”
as §2
4. The microdevice in which the solution was enclosed was incubated at 25° C. for 40 minutes, and then the fluorescence intensity of each well was measured with a fluorescence microscope.
Specifically, in this example, an ROC curve for determination based on the enzyme activity of ENPP determined based on the number of wells with 2500 AU or more is created, and when a threshold is subtracted at the time when the number of wells with 2500 AU or more is 23, the sensitivity is 83% and the specificity is 100% (FIG. 16). It is possible to determine pancreatic cancer by such an ROC curve.

[4] = biological target: T3, ENPP3; experiment: Activity measurement using a purified enzyme of ENPP3 on a plate reader; conditions: Tris-HCl buffer pH 9.3, 1 mM MgCl2, 0.5% CHAPS, 10 μM probe, ENPP3 9.9 μg/mL
Experimental: The activity measurement of PMUM-dCMP obtained in Synthesis Example 7 was performed using a purified enzyme of ENPP3 on a plate reader.
The assay was performed with a Tris-HCl buffer (pH 9.3) containing 1 mM MgCl2, 0.5% w/w CHAPS, 10 μM PMUM-dCMP, and ENPP3 (recombinant, 9.9 μg/mL).

[5] = threshold: number of wells with 2500 AU or more is 23

T1 sequence (P15144 whole entry): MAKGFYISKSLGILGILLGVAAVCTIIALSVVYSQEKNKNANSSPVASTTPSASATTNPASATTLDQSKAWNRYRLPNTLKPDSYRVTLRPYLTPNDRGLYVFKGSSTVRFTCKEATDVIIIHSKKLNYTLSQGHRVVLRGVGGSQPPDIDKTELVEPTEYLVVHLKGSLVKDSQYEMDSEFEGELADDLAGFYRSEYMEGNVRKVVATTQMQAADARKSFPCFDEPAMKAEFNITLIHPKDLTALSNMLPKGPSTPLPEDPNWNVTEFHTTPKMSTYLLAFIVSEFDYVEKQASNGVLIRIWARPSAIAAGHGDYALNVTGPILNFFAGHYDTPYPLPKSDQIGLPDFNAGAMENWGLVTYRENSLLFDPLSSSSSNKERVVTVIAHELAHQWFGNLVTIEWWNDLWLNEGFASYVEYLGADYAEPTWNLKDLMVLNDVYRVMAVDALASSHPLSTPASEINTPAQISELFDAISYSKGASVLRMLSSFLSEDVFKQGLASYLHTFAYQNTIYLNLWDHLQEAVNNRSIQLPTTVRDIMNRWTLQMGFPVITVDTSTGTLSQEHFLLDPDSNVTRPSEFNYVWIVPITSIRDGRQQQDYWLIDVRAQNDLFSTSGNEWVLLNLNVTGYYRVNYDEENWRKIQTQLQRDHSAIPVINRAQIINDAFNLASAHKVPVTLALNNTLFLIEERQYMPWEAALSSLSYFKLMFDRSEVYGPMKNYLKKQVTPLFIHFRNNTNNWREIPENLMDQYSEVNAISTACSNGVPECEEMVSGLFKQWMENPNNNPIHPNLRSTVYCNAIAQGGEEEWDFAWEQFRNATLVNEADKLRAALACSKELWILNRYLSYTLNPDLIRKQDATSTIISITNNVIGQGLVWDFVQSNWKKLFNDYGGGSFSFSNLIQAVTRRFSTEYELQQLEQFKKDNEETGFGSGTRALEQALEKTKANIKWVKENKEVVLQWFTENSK
T2 sequence (P27487 39-766 limits assumed): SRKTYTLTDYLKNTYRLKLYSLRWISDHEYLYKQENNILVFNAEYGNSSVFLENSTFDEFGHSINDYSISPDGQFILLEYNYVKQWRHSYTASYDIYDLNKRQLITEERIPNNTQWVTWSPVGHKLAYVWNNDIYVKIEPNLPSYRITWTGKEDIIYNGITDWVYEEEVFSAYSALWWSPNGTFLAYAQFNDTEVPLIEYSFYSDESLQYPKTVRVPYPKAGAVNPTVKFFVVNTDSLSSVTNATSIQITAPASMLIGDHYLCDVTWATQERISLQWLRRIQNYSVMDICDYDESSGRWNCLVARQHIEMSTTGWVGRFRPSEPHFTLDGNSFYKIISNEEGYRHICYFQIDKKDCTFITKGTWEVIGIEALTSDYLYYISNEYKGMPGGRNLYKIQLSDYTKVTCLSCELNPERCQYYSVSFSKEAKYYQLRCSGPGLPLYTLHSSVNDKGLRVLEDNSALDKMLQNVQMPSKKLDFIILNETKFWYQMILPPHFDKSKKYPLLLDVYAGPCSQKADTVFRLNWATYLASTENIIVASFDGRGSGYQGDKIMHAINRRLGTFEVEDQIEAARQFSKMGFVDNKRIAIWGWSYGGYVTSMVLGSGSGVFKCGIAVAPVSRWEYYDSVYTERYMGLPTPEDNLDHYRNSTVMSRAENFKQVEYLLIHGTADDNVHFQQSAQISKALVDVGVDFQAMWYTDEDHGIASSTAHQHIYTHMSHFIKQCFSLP

Fluorescence intensity of human plasma samples, patient with pancreatic cancer compared with healthy subject (CD13 probe) [1]: a significant difference was observed
AUC of ROC curve for the number of wells in which CD13 is considered to be enclosed [1]: 0.554
SMILES: N=C(N)NCCC[C@H](N)C(=O)Nc1ccc2c(CP(=O)(O)O)cc(=O)oc2c1 [Arg-PMAC]

Fluorescence intensity of human plasma samples, patient with pancreatic cancer compared with healthy subject (DPP4 probe) ([2]; microdevice): a significant difference was observed
AUC of ROC curve for the ratio of the number of wells belonging to the two peaks (DPP4 considered enclosed) ([2]; plasma of 30 patients with pancreatic cancer vs 30 healthy subjects, 25° C. 2 hours): 0.724
SMILES: N[C@@H](CCC(=O)O)C(=O)N1CCC[C@@H]1C(=O)Nc1ccc2c(CP(=O)(O)O)cc(=O)oc2c1 [Glu-Pro-PMAC]

Fluorescence intensity of human plasma samples, patient with pancreatic cancer compared with healthy subject (CD13 probe) [1]: a significant difference was observed
AUC of ROC curve for the number of wells in which CD13 is considered to be enclosed [1]: 0.619
SMILES: CSCC[C@H](N)C(=O)Nc1ccc2c(CP(=O)(O)O)cc(=O)oc2c1 [Met-PMAC]

SMILES: NC1C=CN(C2CC(O)C(COP(=O)(O)Oc3ccc4c(CP(=O)(O)O)cc(=O)oc4c3)O2)C(=O)N1 (centres unmarked) [PMUM-dCMP]
Fluorescence intensity of human plasma samples, patient with pancreatic cancer compared with healthy subject (ENPP probe) ([3]; microdevice, 100 μM probe, 500 fold dilution plasma): a significant difference was observed
Number of wells with fluorescence intensity equal to or higher than 2500 AU, patients with pancreatic cancer compared with healthy subjects ([3]; plasma of six patients and six healthy subjects, 100 μM probe, 500 fold dilution plasma, 25° C. 40 minutes): significant increase in the number of wells
Sensitivity of ROC determination of pancreatic cancer [3, 5]: 83%
Specificity of ROC determination of pancreatic cancer [3, 5]: 100%
Fluorescence intensity (FI) on adding ENPP3 compared with adding no ENPP3 [4]: remarkable increase in fluorescence intensity

Source: patent US20240287106A1, “Method for Producing Fluorescent Probe Library Using Solid-Phase Extraction and Method of Measuring Enzyme Activity Using Same” (The University of Tokyo, priority 2021, published 2024)
